Measured values published in ChEMBL document CHEMBL1153891, “Bioactivity-guided isolation of cytotoxic constituents of Brucea javanica collected in Vietnam” (2009).

How the values were obtained:
[1] = system: MDR; test: Inhibition of MDR pump assessed as potentiation of bruceantin-induced cytotoxicity against human MCF7 cells at 20 ug/mL after 2 days by sulforhodamine B assay; assay type: cell-based
[2] = system: MDR; test: Inhibition of MDR pump assessed as potentiation of bruceine A-induced cytotoxicity against human MCF7 cells at 20 ug/mL after 2 days by sulforhodamine B assay; assay type: cell-based
[3] = system: LNCaP; test: Cytotoxicity against hormone-dependent human LNCAP cells after 2 days by sulforhodamine B assay; assay type: functional; conditions: 48 h, read-out: ED50 (the source's name)
[4] = system: Lu1; test: Cytotoxicity against human Lu1 cells after 2 days by sulforhodamine B assay; assay type: functional; conditions: Lu1, 48 h, read-out: ED50 (the source's name)
[5] = system: MCF7; test: Cytotoxicity against human MCF7 cells after 2 days by sulforhodamine B assay; assay type: functional; conditions: MCF7, 48 h, read-out: ED50 (the source's name)
[6] = system: MCF7; test: Cytotoxicity against human MCF7 cells after 2 days by sulforhodamine B assay in presence of 43 uM (-)-hydnocarpin; assay type: functional; conditions: MCF7, 48 h, read-out: ED50 (the source's name)
[7] = system: MCF7; test: Ratio ED50 for human MCF7 cells to ED50 for human MCF7 cells in presence of 43 uM (-)-hydnocarpin; assay type: functional

Row | Structure (SMILES) | ED50 [1] | ED50 [2] | EC50 [3] | EC50 [4] | EC50 [5] | EC50 [6] | Ratio ED50 [7]
1 | COc1cc([C@@H]2Oc3ccc(-c4cc(=O)c5c(O)cc(O)cc5o4)cc3O[C@H]2CO)ccc1O | > 10 µM | > 10 µM | > 10 µM | > 10 µM | > 10 µM |  | 
2 | CCCCCC(=O)O[C@@H]1C[C@]2(C)C(=CC[C@H]2[C@@H]2C[C@@H]([C@@H]3OC3(C)C)O[C@@H]2OC(C)=O)[C@@]2(C)[C@H]1[C@@]1(C)C=CC(=O)C(C)(C)[C@@H]1C[C@H]2OC(C)=O |  |  | > 10 µM | > 10 µM | > 10 µM |  | 
3 | C/C=C(\C)C(=O)O[C@@H]1C[C@@]2(C)[C@H]([C@@H]3C[C@@H]([C@@H]4OC4(C)C)O[C@@H]3OC(C)=O)CC[C@]2(C)[C@@H]2CC=C3C(C)(C)C(=O)C[C@H](O)[C@]3(C)[C@H]21 [BRUCEAJAVANINONE A] |  |  | > 10 µM | > 10 µM | > 10 µM |  | 
4 | CCCCCC(=O)O[C@@H]1C[C@]2(C)C(=CC[C@H]2[C@@H]2C[C@@H]([C@@H]3OC3(C)C)O[C@@H]2OC(C)=O)[C@]2(C)[C@H](O)C[C@H]3C(C)(C)C(=O)C=C[C@]3(C)[C@@H]12 [BRUCEAJAVANONE A] |  |  | > 10 µM | > 10 µM | > 10 µM |  | 
5 | C/C=C(\C)C(=O)O[C@@H]1C[C@]2(C)C(=CC[C@H]2[C@@H]2C[C@@H]([C@@H]3OC3(C)C)O[C@@H]2OC(C)=O)[C@@]2(C)[C@H]1[C@@]1(C)C=CC(=O)C(C)(C)[C@@H]1C[C@H]2OC(C)=O [BRUCEAJAVANONE B] |  |  | > 10 µM | > 10 µM | > 10 µM |  | 
6 | C/C=C(\C)C(=O)O[C@@H]1C[C@]2(C)C(=CC[C@H]2[C@@H]2C[C@@H]([C@@H]3OC3(C)C)O[C@H]2OC)[C@]2(C)[C@H](OC(C)=O)C[C@H]3C(C)(C)C(=O)C[C@H](O)[C@]3(C)[C@@H]12 [BRUCEAJAVANONE C] |  |  | > 10 µM | > 10 µM | > 10 µM |  | 
7 | COC(=O)[C@@]12OC[C@]34[C@H]([C@@H](O)[C@@H]1O)[C@@]1(C)CC(=O)C(O)=C(C)[C@@H]1C[C@H]3OC(=O)[C@H](OC(=O)/C=C(\C)C(C)C)[C@@H]24 [BRUCEANTIN] |  |  | 0.011 µM | 0.012 µM | 0.002 µM | 0.00027 µM | 7.4
8 | COC(=O)[C@@]12OC[C@]34[C@H]([C@@H](O)[C@@H]1O)[C@@]1(C)CC(=O)C(O)=C(C)[C@@H]1C[C@H]3OC(=O)[C@H](OC(=O)CC(C)C)[C@@H]24 [BRUCEINE A] |  |  | 0.096 µM | 0.079 µM | 0.015 µM | 0.0015 µM | 10
9 | CC[C@@]1(O)C(=O)OCc2c1cc1n(c2=O)Cc2cc3ccccc3nc2-1 [CAMPTOTHECIN] |  |  | > 10 µM | > 10 µM | > 10 µM |  | 
10 | CC(=O)O[C@H]1C(=O)[C@@]2(C)[C@H]([C@H](OC(=O)c3ccccc3)[C@]3(O)C[C@H](OC(=O)[C@H](O)[C@@H](NC(=O)c4ccccc4)c4ccccc4)C(C)=C1C3(C)C)[C@]1(OC(C)=O)CO[C@@H]1C[C@@H]2O [PACLITAXEL] |  |  | > 10 µM | > 10 µM | > 10 µM |  | 
